# Tests used:
# Format in all cases: cell-based
# [1] = system: E. coli DH5α; assay: Antibacterial activity: MIC and growth curve against E. coli DH5α in 96-well plate; details: minimal inhibitory concentration against E. coli DH5α; 96-well plate, 5×10^5 CFU/mL, 37° C., judged after 8 h
# Outline: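 Log-phase DH5α (OD600 about 0.5, 37° C, 185 rpm in LB) was pelleted, resuspended in fresh LB and seeded at 5×10^5 CFU/mL with recombinant protein at 50, 25 and 12.5 μg/mL (two-fold series), in triplicate. Plates were shaken at 175 rpm, 37° C, and OD600 was read every 30 min. MIC was the lowest concentration with no growth.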
# [2] = system: E. coli BL21; assay: MIC against Gram-negative bacteria: E. coli BL21
# Outline: (§1)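 MIC = lowest concentration of recombinant protein showing no growth. Test proteins: purified human-derived EGF domain proteins, two-fold dilution series, three wells per concentration; inoculum 5×10^5 CFU/mL in LB; incubation 37° C with shaking at 175 rpm.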
# [3] = system: Pseudomonas aeruginosa; assay: MIC against Gram-negative bacteria: Pseudomonas aeruginosa
# Outline: as §1
# [4] = system: Klebsiella pneumonia; assay: MIC against Gram-negative bacteria: Klebsiella pneumonia
# Outline: as §1
# [5] = system: Enterobacter cloacae; assay: MIC against Gram-negative bacteria: Enterobacter cloacae
# Outline: as §1
# [6] = system: Aeromonas hydrophila; assay: MIC against Gram-negative bacteria: Aeromonas hydrophila
# Outline: as §1
# [7] = system: Citrobacter diversus; assay: MIC against Gram-negative bacteria: Citrobacter diversus
# Outline: as §1
# [8] = system: Moraxella catarrhalis; assay: MIC against Gram-negative bacteria: Moraxella catarrhalis
# Outline: as §1
# [9] = system: Proteus mirabilis; assay: MIC against Gram-negative bacteria: Proteus mirabilis
# Outline: as §1
# [10] = system: Proteus vulgaris; assay: MIC against Gram-negative bacteria: Proteus vulgaris
# Outline: as §1
# [11] = system: Serratia marcescens; assay: MIC against Gram-negative bacteria: Serratia marcescens
# Outline: as §1
# [12] = E. coli BL21, 96-well plate, 5×10^5 CFU/mL, 37° C., 10 h
# [13] = Pseudomonas aeruginosa, 96-well plate, 5×10^5 CFU/mL, 37° C., 10 h
# [14] = Klebsiella pneumonia, 96-well plate, 5×10^5 CFU/mL, 37° C., 10 h
# [15] = Enterobacter cloacae, 96-well plate, 5×10^5 CFU/mL, 37° C., 10 h
# [16] = Aeromonas hydrophila, 96-well plate, 5×10^5 CFU/mL, 37° C., 10 h
# [17] = Citrobacter diversus, 96-well plate, 5×10^5 CFU/mL, 37° C., 10 h
# [18] = Moraxella catarrhalis, 96-well plate, 5×10^5 CFU/mL, 37° C., 10 h
# [19] = Proteus mirabilis, 96-well plate, 5×10^5 CFU/mL, 37° C., 10 h
# [20] = Proteus vulgaris, 96-well plate, 5×10^5 CFU/mL, 37° C., 10 h
# [21] = Serratia marcescens, 96-well plate, 5×10^5 CFU/mL, 37° C., 10 h
# [22] = 96-well plate, 5×10^5 CFU/mL, 37° C., 10 h
substance,measurement,setting,value
PRT914 (DARTCGSLRCLNGGTCISGPRSPTCLCLGPFTGPECQ; listed as Homo sapiens),MIC,[1],12.5 µg/mL
same,MIC,"[2]; E. coli BL21, 10 h cultivation at 37° C.",25 µg/mL
same,MIC,"[3]; P. aeruginosa, 10 h cultivation at 37° C.",12.5 µg/mL
same,MIC,"[4]; K. pneumonia, 10 h cultivation at 37° C.",12.5 µg/mL
same,MIC,"[5]; E. cloacae, 10 h cultivation at 37° C.",25 µg/mL
same,MIC,"[6]; A. hydrophila, 10 h cultivation at 37° C.",12.5 µg/mL
same,MIC,"[7]; C. diversus, 10 h cultivation at 37° C.",12.5 µg/mL
same,MIC,"[8]; M. catarrhalis, 10 h cultivation at 37° C.",12.5 µg/mL
same,MIC,"[9]; P. mirabilis, 10 h cultivation at 37° C.",12.5 µg/mL
same,MIC,"[10]; P. vulgaris, 10 h cultivation at 37° C.",12.5 µg/mL
same,MIC,"[11]; S. marcescens, 10 h cultivation at 37° C.",12.5 µg/mL
PRT80 (TNVCDLNPCEHQSVCTRKPSAPHGYTCECPPNYLGPYCE; listed as Homo sapiens),MIC,[1],12.5 µg/mL
same,MIC (μg/mL) E. coli BL21,[2]; [12],50 µg/mL
same,MIC (μg/mL) P. aeruginosa,[3]; [13],12.5 µg/mL
same,MIC (μg/mL) K. pneumonia,[4]; [14],25 µg/mL
same,MIC (μg/mL) E. cloacae,[5]; [15],12.5 µg/mL
same,MIC (μg/mL) A. hydrophila,[6]; [16],25 µg/mL
same,MIC (μg/mL) C. diversus,[7]; [17],12.5 µg/mL
same,MIC (μg/mL) M. catarrhalis,[8]; [18],25 µg/mL
same,MIC (μg/mL) P. mirabilis,[9]; [19],12.5 µg/mL
same,MIC (μg/mL) P. vulgaris,[10]; [20],12.5 µg/mL
same,MIC (μg/mL) S. marcescens,[11]; [21],12.5 µg/mL
PRT636 (DINECEHPGLCGPQGECLNTEGSFHCVCQQGFSISADGRTCE; listed as Homo sapiens),MIC,[1],12.5 µg/mL
same,MIC E. coli BL21,[2]; [22],25 µg/mL
same,MIC P. aeruginosa,[3]; [22],50 µg/mL
same,MIC K. pneumonia,[4]; [22],25 µg/mL
same,MIC E. cloacae,[5]; [22],12.5 µg/mL
same,MIC A. hydrophila,[6]; [22],25 µg/mL
same,MIC C. diversus,[7]; [22],50 µg/mL
same,MIC M. catarrhalis,[8]; [22],25 µg/mL
same,MIC P. mirabilis,[9]; [22],12.5 µg/mL
same,MIC P. vulgaris,[10]; [22],25 µg/mL
same,MIC S. marcescens,[11]; [22],50 µg/mL
PRT507 (CICYGHARACPLDPATNKSRCECEHNTCGDSCDQCCPGFHQKPWRAGTFLTKTECEA; listed as Homo sapiens),MIC,[1],12.5 µg/mL
same,MIC against E. coli BL21,[2]; [22],50 µg/mL
same,MIC against P. aeruginosa,[3]; [22],12.5 µg/mL
same,MIC against K. pneumonia,[4]; [22],50 µg/mL
same,MIC against E. cloacae,[5]; [22],12.5 µg/mL
same,MIC against A. hydrophila,[6]; [22],50 µg/mL
same,MIC against C. diversus,[7]; [22],12.5 µg/mL
same,MIC against M. catarrhalis,[8]; [22],50 µg/mL
same,MIC against P. mirabilis,[9]; [22],12.5 µg/mL
same,MIC against P. vulgaris,[10]; [22],50 µg/mL
same,MIC against S. marcescens,[11]; [22],25 µg/mL
PRT1209 (ATEDCASNPCQNGGVCNPSPAGGYYCKCSALYIGTHCE; listed as Homo sapiens),MIC,[1],50 µg/mL
same,MIC against E. coli BL21,[2]; [12],12.5 µg/mL
same,MIC against P. aeruginosa,[3]; [13],25 µg/mL
same,MIC against K. pneumonia,[4]; [14],50 µg/mL
same,MIC against E. cloacae,[5]; [15],25 µg/mL
same,MIC against A. hydrophila,[6]; [16],12.5 µg/mL
same,MIC against C. diversus,[7]; [17],25 µg/mL
same,MIC against M. catarrhalis,[8]; [18],12.5 µg/mL
same,MIC against P. mirabilis,[9]; [19],12.5 µg/mL
same,MIC against P. vulgaris,[10]; [20],25 µg/mL
same,MIC against S. marcescens,[11]; [21],12.5 µg/mL
